Results reported in PubChem BioAssay AID1963854 (Molecular Pharmacology Branch, DTP, NCI, 2024).

Tested on: 186277-243-T-J2-PDC complex spheroid viability
Assay: Anticancer human tumor 186277-243-T-J2-PDC patient-derived colon adenocarcinoma cell line growth inhibition [POLQ]
Conditions: for IC50: curve of first compound; for viability, T/C: stronger effect = lower value
In short: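 PDC + HUVEC + MSC complex spheroids; POLQ inhibitors ± partner drugs; top conc. at/near clinical Cmax, else 10 microM (SN-38 1 microM), half-log dilutions; 37 degrees C, 5% CO2.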

[1] = second compound 0.0316 µM, first compound 0.00316 µM
[2] = second compound 0.0316 µM, first compound 0.01 µM
[3] = second compound 0.0316 µM, first compound 0.0316 µM
[4] = second compound 0.0316 µM, first compound 0.1 µM
[5] = second compound 0.1 µM, first compound 0.00316 µM
[6] = second compound 0.1 µM, first compound 0.01 µM
[7] = second compound 0.1 µM, first compound 0.0316 µM
[8] = second compound 0.1 µM, first compound 0.1 µM
[9] = second compound 0.316 µM, first compound 0.00316 µM
[10] = second compound 0.316 µM, first compound 0.01 µM
[11] = second compound 0.316 µM, first compound 0.0316 µM
[12] = second compound 0.316 µM, first compound 0.1 µM
[13] = second compound 1 µM, first compound 0.00316 µM
[14] = second compound 1 µM, first compound 0.01 µM
[15] = second compound 1 µM, first compound 0.0316 µM
[16] = second compound 1 µM, first compound 0.1 µM
[17] = second compound 3.16 µM, first compound 0.00316 µM
[18] = second compound 3.16 µM, first compound 0.01 µM
[19] = second compound 3.16 µM, first compound 0.0316 µM
[20] = second compound 3.16 µM, first compound 0.1 µM
[21] = second compound 10 µM, first compound 0.00316 µM
[22] = second compound 10 µM, first compound 0.01 µM
[23] = second compound 10 µM, first compound 0.0316 µM
[24] = second compound 10 µM, first compound 0.1 µM
[25] = second compound 0.0316 µM, first compound 0.316 µM
[26] = second compound 0.0316 µM, first compound 1 µM
[27] = second compound 0.1 µM, first compound 0.316 µM
[28] = second compound 0.1 µM, first compound 1 µM
[29] = second compound 0.316 µM, first compound 0.316 µM
[30] = second compound 0.316 µM, first compound 1 µM
[31] = second compound 1 µM, first compound 0.316 µM
[32] = second compound 1 µM, first compound 1 µM
[33] = second compound 3.16 µM, first compound 0.316 µM
[34] = second compound 3.16 µM, first compound 1 µM
[35] = second compound 10 µM, first compound 0.316 µM
[36] = second compound 10 µM, first compound 1 µM
[37] = second compound 0.0316 µM, first compound 3.16 µM
[38] = second compound 0.0316 µM, first compound 10 µM
[39] = second compound 0.1 µM, first compound 3.16 µM
[40] = second compound 0.1 µM, first compound 10 µM
[41] = second compound 0.316 µM, first compound 3.16 µM
[42] = second compound 0.316 µM, first compound 10 µM
[43] = second compound 1 µM, first compound 3.16 µM
[44] = second compound 1 µM, first compound 10 µM
[45] = second compound 3.16 µM, first compound 3.16 µM
[46] = second compound 3.16 µM, first compound 10 µM
[47] = second compound 10 µM, first compound 3.16 µM
[48] = second compound 10 µM, first compound 10 µM
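Also: spheroids exposed to compounds for seven days.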
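For viability, T/C in this document: 100% = DMSO vehicle control viability.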

Structure (SMILES): CC[C@@]1(O)C(=O)OCc2c1cc1n(c2=O)Cc2cc3c(CN(C)C)c(O)ccc3nc2-1 + COC1C(OC(N)=O)C(O)C(Oc2ccc3c(O)c(NC(=O)c4ccc(O)c(CC=C(C)C)c4)c(=O)oc3c2C)OC1(C)C
- IC50 (second compound 0.0316 µM): 69.9 nM
- IC50 (second compound 0.1 µM): 60.7 nM
- IC50 (second compound 0.316 µM): 52.5 nM
- IC50 (second compound 1 µM): 48.7 nM
- IC50 (second compound 3.16 µM): 48.5 nM
- IC50 (second compound 10 µM): 48 nM
- viability, T/C (second compound 0.0316 µM, first compound 0.000316 µM): 105%
- viability, T/C (second compound 0.0316 µM, first compound 0.001 µM): 103%
- viability, T/C [1]: 97.4%
- viability, T/C [2]: 114%
- viability, T/C [3]: 65.5%
- viability, T/C [4]: 43%
- viability, T/C (second compound 0.1 µM, first compound 0.000316 µM): 96.1%
- viability, T/C (second compound 0.1 µM, first compound 0.001 µM): 99.1%
- viability, T/C [5]: 117%
- viability, T/C [6]: 115%
- viability, T/C [7]: 60.4%
- viability, T/C [8]: 42%
- viability, T/C (second compound 0.316 µM, first compound 0.000316 µM): 101%
- viability, T/C (second compound 0.316 µM, first compound 0.001 µM): 113%
- viability, T/C [9]: 104%
- viability, T/C [10]: 109%
- viability, T/C [11]: 57.9%
- viability, T/C [12]: 40%
- viability, T/C (second compound 1 µM, first compound 0.000316 µM): 105%
- viability, T/C (second compound 1 µM, first compound 0.001 µM): 105%
- viability, T/C [13]: 97.1%
- viability, T/C [14]: 120%
- viability, T/C [15]: 57%
- viability, T/C [16]: 38.5%
- viability, T/C (second compound 3.16 µM, first compound 0.000316 µM): 97.3%
- viability, T/C (second compound 3.16 µM, first compound 0.001 µM): 107%
- viability, T/C [17]: 102%
- viability, T/C [18]: 107%
- viability, T/C [19]: 56.6%
- viability, T/C [20]: 38.9%
- viability, T/C (second compound 10 µM, first compound 0.000316 µM): 107%
- viability, T/C (second compound 10 µM, first compound 0.001 µM): 119%
- viability, T/C [21]: 104%
- viability, T/C [22]: 110%
- viability, T/C [23]: 56.3%
- viability, T/C [24]: 38.9%

Structure (SMILES): COc1cccc(OCCCN)c1-c1cc(Nc2cnc(C#N)cn2)n[nH]1 + COC1C(OC(N)=O)C(O)C(Oc2ccc3c(O)c(NC(=O)c4ccc(O)c(CC=C(C)C)c4)c(=O)oc3c2C)OC1(C)C
- IC50 (second compound 0.0316 µM): < 3.16 nM
- IC50 (second compound 0.1 µM): < 3.16 nM
- IC50 (second compound 0.316 µM): < 3.16 nM
- IC50 (second compound 1 µM): < 3.16 nM
- IC50 (second compound 3.16 µM): < 3.16 nM
- IC50 (second compound 10 µM): < 3.16 nM
- viability, T/C [1]: 8.14%
- viability, T/C [2]: 5.13%
- viability, T/C [3]: 4.48%
- viability, T/C [4]: 4.86%
- viability, T/C [25]: 4.49%
- viability, T/C [26]: 5.84%
- viability, T/C [5]: 9.53%
- viability, T/C [6]: 5.58%
- viability, T/C [7]: 4.93%
- viability, T/C [8]: 4.32%
- viability, T/C [27]: 4.26%
- viability, T/C [28]: 5.58%
- viability, T/C [9]: 9.04%
- viability, T/C [10]: 5.2%
- viability, T/C [11]: 5.3%
- viability, T/C [12]: 4.89%
- viability, T/C [29]: 4.61%
- viability, T/C [30]: 5.48%
- viability, T/C [13]: 8.31%
- viability, T/C [14]: 6.44%
- viability, T/C [15]: 4.79%
- viability, T/C [16]: 4.46%
- viability, T/C [31]: 4.72%
- viability, T/C [32]: 5.47%
- viability, T/C [17]: 7.66%
- viability, T/C [18]: 5.09%
- viability, T/C [19]: 4.84%
- viability, T/C [20]: 4.62%
- viability, T/C [33]: 4.32%
- viability, T/C [34]: 5.85%
- viability, T/C [21]: 6.16%
- viability, T/C [22]: 5.21%
- viability, T/C [23]: 4.7%
- viability, T/C [24]: 4.65%
- viability, T/C [35]: 5.39%
- viability, T/C [36]: 6.57%

Structure (SMILES): Nc1ccn(C2OC(CO)C(O)C2(F)F)c(=O)n1 (stereo not drawn) + COC1C(OC(N)=O)C(O)C(Oc2ccc3c(O)c(NC(=O)c4ccc(O)c(CC=C(C)C)c4)c(=O)oc3c2C)OC1(C)C
- IC50 (second compound 0.0316 µM): < 31.6 nM
- IC50 (second compound 0.1 µM): < 31.6 nM
- IC50 (second compound 0.316 µM): < 31.6 nM
- IC50 (second compound 1 µM): < 31.6 nM
- IC50 (second compound 3.16 µM): < 31.6 nM
- IC50 (second compound 10 µM): < 31.6 nM
- viability, T/C [3]: 7.44%
- viability, T/C [4]: 5.74%
- viability, T/C [25]: 6.22%
- viability, T/C [26]: 6.52%
- viability, T/C [37]: 5.93%
- viability, T/C [38]: 5.3%
- viability, T/C [7]: 7.07%
- viability, T/C [8]: 5.49%
- viability, T/C [27]: 6.25%
- viability, T/C [28]: 6.16%
- viability, T/C [39]: 7.16%
- viability, T/C [40]: 5.7%
- viability, T/C [11]: 6.61%
- viability, T/C [12]: 5.95%
- viability, T/C [29]: 6.28%
- viability, T/C [30]: 6.18%
- viability, T/C [41]: 6.62%
- viability, T/C [42]: 5.63%
- viability, T/C [15]: 6.65%
- viability, T/C [16]: 5.29%
- viability, T/C [31]: 5.98%
- viability, T/C [32]: 6.8%
- viability, T/C [43]: 6.08%
- viability, T/C [44]: 5.74%
- viability, T/C [19]: 5.98%
- viability, T/C [20]: 5.52%
- viability, T/C [33]: 5.91%
- viability, T/C [34]: 5.81%
- viability, T/C [45]: 7.8%
- viability, T/C [46]: 5.79%
- viability, T/C [23]: 6.27%
- viability, T/C [24]: 5.86%
- viability, T/C [35]: 6.51%
- viability, T/C [36]: 6.65%
- viability, T/C [47]: 7.8%
- viability, T/C [48]: 5.54%

Structure (SMILES): CCc1cc2c(N3CCc4c(cc(Cn5ccnc5)cc4-c4cn(C)nc4C(F)(F)F)C3=O)ccnc2c(OC)n1 + Nc1ccc(C#CCN(C(=O)Cc2ncc(C(F)(F)F)cc2C(F)(F)F)c2ccc(F)cc2)nn1
- IC50 (second compound 0.0316 µM): > 10000 nM
- IC50 (second compound 0.1 µM): > 10000 nM
- IC50 (second compound 0.316 µM): > 10000 nM
- IC50 (second compound 1 µM): > 10000 nM
- IC50 (second compound 3.16 µM): > 10000 nM
- IC50 (second compound 10 µM): > 10000 nM
- viability, T/C [3]: 94.6%
- viability, T/C [4]: 95.7%
- viability, T/C [25]: 91.6%
- viability, T/C [26]: 85.6%
- viability, T/C [37]: 96.3%
- viability, T/C [38]: 111%
- viability, T/C [7]: 90.2%
- viability, T/C [8]: 92.2%
- viability, T/C [27]: 100%
- viability, T/C [28]: 97.8%
- viability, T/C [39]: 119%
- viability, T/C [40]: 95.5%
- viability, T/C [11]: 88.8%
- viability, T/C [12]: 111%
- viability, T/C [29]: 90.9%
- viability, T/C [30]: 108%
- viability, T/C [41]: 104%
- viability, T/C [42]: 114%
- viability, T/C [15]: 103%
- viability, T/C [16]: 102%
- viability, T/C [31]: 93.1%
- viability, T/C [32]: 94.6%
- viability, T/C [43]: 110%
- viability, T/C [44]: 105%
- viability, T/C [19]: 109%
- viability, T/C [20]: 98.7%
- viability, T/C [33]: 112%
- viability, T/C [34]: 100%
- viability, T/C [45]: 106%
- viability, T/C [46]: 94.2%
- viability, T/C [23]: 117%
- viability, T/C [24]: 99%
- viability, T/C [35]: 100%
- viability, T/C [36]: 117%
- viability, T/C [47]: 121%
- viability, T/C [48]: 90.9%
